Patent US20090197867A1, “ENANTIOMERICALLY ENRICHED IMIDAZOAZEPINONE COMPOUNDS” (priority 2007, published 2009)

Tests used:
CIA mouse = assay: Suppression of arthritis development in CIA (active immunization); assay type: in vivo; details: DBA1/J mice, oral dosing once daily, read-out: Arthritis Model Approx ED50, Active Immunization (CIA mouse)
Excerpt: Suppression of arthritis development in CIA. DBA1/J mice were immunized with bCII/CFA at day 0 then boosted at day 21 with bCII/IFA. Arthritis development was monitored over the course of study. The arthritis score is as follows: 0=normal paw, score of 1=1-2 digit inflamed paws; score of 2=3 digits or 1-2 digit+wrist or ankle inflamed, score of 3=hand+more than 2 digits inflamed; and score of 4=multiple digits (3-4)+important wrist or ankle inflammation.
(A) Partial therapeutic evaluation of compounds. Active compound was given by oral dosing once daily at the dose indicated from day 20 after induction of antibodies to collagen II but before disease development. (B) Full therapeutic evaluation of compound. Active compound was given after disease was developed (from day 7 after the second immunization). (C) X-ray analysis of mouse paws from full therapeutic CIA study. X-ray score is the index of measurement of combination of osteopenia, bone erosion and new bone formation. (D) Representative X-ray radiographs.

CAIA mouse = assay: Suppression of arthritis development in CAIA (passive immunization); assay type: in vivo; details: BALB/c mice, once daily PO day 0 to day 7
Experimental: Suppression of arthritis development in CAIA. BALB/c mice were injected i.v. with 1 mg of anti-type II collagen antibody at day 0, and 3 days later 25 μg of LPS was injected i.p. with active compound and methotrexate (MTX) was given once daily PO from day 0 to day 7. Arthritis score and body weight was monitored over the course of study.

CCN1C(=O)N2Cc3cc(OC)cc(OC)c3[C@@H](C)C=C2C12CCN(Cc1cccn1C)CC2 [ER-819924-01]
ED50 (CIA mouse): 3 to 10 mg/kg

CN(Cc1cnc2nc(N)nc(N)c2n1)c1ccc(C(=O)N[C@@H](CCC(=O)O)C(=O)O)cc1 [methotrexate, reference compound]
activity in the CAIA model (arthritis score) (CAIA mouse): not particularly active

CCN1C(=O)N2Cc3cc(OC)cc(OC)c3[C@@H](C)C=C2C12CCN(Cc1cc(C)cc(C)c1)CC2 [ER-819762-01]
ED50 (CIA mouse): ~3 mg/kg | ED50 (CAIA mouse; Mus musculus, read-out: Arthritis Model Approx ED50, Passive Immunization (CAIA mouse)): 30 to 60 mg/kg

CCN1C(=O)N2Cc3cc(OC)cc(OC)c3[C@@H](C)C=C2C12CCN(Cc1cc(C)nn1C)CC2 [ER-819973-01]
ED50 (CIA mouse): 3 to 10 mg/kg
